Tested on: cutaneous tumors (basal cell carcinoma, squamous cell carcinoma, melanoma, and others)
Test: Tumor response 2 months after electrochemotherapy (RECIST 1.1)
Conditions: for tumor complete response rate 2 months after therapy: biopsied tumors, electrochemotherapy with i.v. bleomycin 15,000 IU/m^2; for Tumor Response (All Tumors): electrochemotherapy, 2 months, RECIST 1.1
Description: All patients who presented with skin cancers, recurrent disease (and/or metastatic disease) or a second primary tumor in the head and neck region were either not suitable for conventional treatments or refused them. The patients were treated with electrochemotherapy at the Department of Otorhinolaryngology and Cervicofacial Surgery, University Medical Centre Ljubljana, Slovenia or the Department of Dermatology and Allergology, University of Szeged, Hungary. […] Treatment with electrochemotherapy was previously agreed upon by a multidisciplinary board, and written informed consent was obtained from all eligible patients. The selection of patients was performed according to the NICE guidelines. The included patients were older than 18 years and presented with different histologies of cutaneous tumors (basal cell carcinoma, squamous cell carcinoma, melanoma, and others). […] In the study, altogether 25 patients were included; 8 patients younger than 65 for blood sample collection, 4 patients younger than 65 for blood and tumor sample collection and 13 patients for tumor sample collection with no age limitation.
Electrochemotherapy was performed according to the updated standard operating procedures [24]. […] Electric pulses for electrochemotherapy were generated by a Cliniporator pulse generator (IGEA, s.r.l., Carpi, Italy) and delivered by fixed geometry electrodes, i.e., mainly electrodes with eight needles arranged in two rows of four needles each with a distance of 4 mm between the rows. In one application of electric pulses, eight pulses with a voltage of 400 V, a pulse duration of 100 µs and a frequency of 5000 Hz were applied. The number of applications was adjusted to the size of the treated tumors.
The tumor volumes were calculated according to the SOP, i.e., a × b^2 × π/6. Tumor response 2 months after electrochemotherapy was evaluated with a clinical exam according to RECIST 1.1 criteria [25].

Substance: bleomycin
- tumor complete response rate 2 months after therapy (BCC (8/9)): 89%
- tumor complete response rate 2 months after therapy (SCC (4/5)): 80%
- Tumor Response (All Tumors) (Table 3 patient 1 (BCC, 3 lesions, 24,000 IU)): 1 CR, 2 PR
- Tumor Response (All Tumors) (Table 3 patient 5 (BCC, 5 lesions, 27,000 IU)): 4 CR, 1 SD
- Tumor Response (All Tumors) (Table 3 patient 7 (BCC, 5 lesions, 24,000 IU)): 5 CR
- Tumor Response (All Tumors) (Table 3 patient 11 * (SCC, 6 lesions, 30,000 IU)): 6 CR
- Tumor Response (All Tumors) (Table 3 patient 15 * (Melanoma, 3 lesions, 29,100 IU)): 3 CR
- Tumor Response (All Tumors) (Table 3 patient 17 (Porocarcinoma, 2 lesions, 29,850 IU)): 2 CR
- Tumor Response (All Tumors) (Table 3 patient 19 (BCC, 16 lesions, 21,900 IU)): 11 CR, 5 PR
